Data taken from the supplement of paper PMC13380429.
± gives the standard deviation of the averaged measurements.

Columns and labels:
Conditions in all cases: 72 h
U2OS [1] = test: cell viability relative to DMSO; higher = less toxic
HepG2 [2] = test: as above
Caco-2 [3] = test: as above
Vero E6 [4] = test: as above
Calu-3 [5] = test: as above
U2OS [6] = test: relative viability EC50 (midpoint between 100% and the lowest measured viability); higher = less toxic
HepG2 [7] = test: as above
Caco-2 [8] = test: as above
Vero E6 [9] = test: as above
Calu-3 [10] = test: as above
U2OS [11] = test: drug sensitivity score (DSS) for viability; higher = more toxic; extreme values may be limits of the assay
HepG2 [12] = test: as above
Caco-2 [13] = test: as above
Vero E6 [14] = test: as above
Calu-3 [15] = test: as above

SMILES	cell viability (U2OS [1]; 1 nM)	cell viability (U2OS [1]; 10 nM)	cell viability (U2OS [1]; 100 nM)	cell viability (U2OS [1]; 1000 nM)	cell viability (U2OS [1]; 10000 nM)	cell viability (HepG2 [2]; 1 nM)	cell viability (HepG2 [2]; 10 nM)	cell viability (HepG2 [2]; 100 nM)	cell viability (HepG2 [2]; 1000 nM)	cell viability (HepG2 [2]; 10000 nM)	cell viability (Caco-2 [3]; 1 nM)	cell viability (Caco-2 [3]; 10 nM)	cell viability (Caco-2 [3]; 100 nM)	cell viability (Caco-2 [3]; 1000 nM)	cell viability (Caco-2 [3]; 10000 nM)	cell viability (Vero E6 [4]; 1 nM)	cell viability (Vero E6 [4]; 10 nM)	cell viability (Vero E6 [4]; 100 nM)	cell viability (Vero E6 [4]; 1000 nM)	cell viability (Vero E6 [4]; 10000 nM)	cell viability (Calu-3 [5]; 1 nM)	cell viability (Calu-3 [5]; 10 nM)	cell viability (Calu-3 [5]; 100 nM)	cell viability (Calu-3 [5]; 1000 nM)	cell viability (Calu-3 [5]; 10000 nM)	relative viability EC50 (U2OS [6])	relative viability EC50 (HepG2 [7])	relative viability EC50 (Caco-2 [8])	relative viability EC50 (Vero E6 [9])	relative viability EC50 (Calu-3 [10])	drug sensitivity score (U2OS [11])	drug sensitivity score (HepG2 [12])	drug sensitivity score (Caco-2 [13])	drug sensitivity score (Vero E6 [14])	drug sensitivity score (Calu-3 [15])
COc1cccc2c1C(=O)c1c(O)c3c(c(O)c1C2=O)C[C@@](O)(C(=O)CO)C[C@@H]3O[C@H]1C[C@H](N2CCO[C@H](OC)C2)[C@H](O)[C@H](C)O1 [nemorubicin]	91.8%	1.3%	0.9%	0.3%	1.3%	55.4%	0.1%	6.3%	3%	1.5%	88.8%	24.6%	30.4%	32.6%	24.5%	72.6%	2.4%	2.8%	0.8%	2.7%	69.2%	21.2%	35.1%	31.5%	30%	0.0025 µM	0.0011 µM	0.002 µM	0.0016 µM	0.0012 µM	44.1	48	35.1	46.1	38.4
COc1ccc(COc2ccc(Cc3cnc(N)nc3N)cc2OC)cc1 [GW-2580]	99.2%	99.3%	94.3%	103%	92.2%	113%	108%	108%	99.5%	108%	98.2%	97.6%	95.7%	102%	91.2%	95.3%	97.9%	100%	98.3%	96%	110%	102%	97.2%	102%	99.7%	> 10 µM	> 10 µM	> 10 µM	> 10 µM	> 10 µM	0	0	0	0	0
COCCNC(=O)Cn1cnc([N+](=O)[O-])n1 [sanazole]	98.3%	104%	96.7%	97.7%	95.8%	103%	93.3%	102%	95.7%	97.6%	93%	99.6%	95.9%	93.9%	93.4%	99.5%	99.1%	95.7%	101%	96.6%	96.7%	106%	97.6%	102%	103%	> 10 µM	> 10 µM	> 10 µM	> 10 µM	> 10 µM	0	0	0	0	0
NC1CCN(c2nc3c(cc2F)c(=O)c(C(=O)O)cn3-c2ccc(F)cc2F)C1 (stereo not given) [tosufloxacin]	97.3%	104%	98.6%	102%	95%	88.1%	87.6%	95.9%	96.3%	78.6%	96%	99.9%	111%	99.4%	81.7%	101%	101%	108%	101%	99.7%	95.1%	103%	101%	103%	124%	> 10 µM	> 10 µM	> 10 µM	> 10 µM	> 10 µM	0	0	0.5	0	0
CCCc1c(OCC(O)COc2ccc3c(=O)cc(C(=O)O)oc3c2CCC)ccc(C(C)=O)c1O (stereo not given)	104%	95.5%	102%	97.4%	98.9%	99.8%	107%	96.9%	103%	92.4%	99.1%	92.4%	93.6%	102%	95%	102%	105%	97.2%	97.9%	89.6%	107%	90.8%	99.7%	102%	109%	> 10 µM	> 10 µM	> 10 µM	> 10 µM	> 10 µM	0	0	0	0	0
C[C@@H](Oc1ccc(Cl)cc1)c1ccnc2ncnn12	95.8%	94.3%	99.3%	99.9%	99.2%	95%	102%	92.7%	96.3%	107%	97.2%	91.7%	94%	109%	93%	96.2%	97.7%	90.1%	96.2%	106%	118%	97.6%	100%	89.7%	95%	> 10 µM	> 10 µM	> 10 µM	> 10 µM	> 10 µM	0	0	0	0	0
c1ccc2sc(N3CCN(Cc4ccc5c(c4)OCO5)CC3)nc2c1 [2-[1-(4-piperonyl)piperazinyl]benzothiazole]	97.2%	98%	106%	96.1%	104%	98.4%	108%	100%	96%	103%	103%	92.2%	98.9%	90.3%	100%	92%	94.8%	91.7%	95.8%	100%	102%	92.8%	103%	98.6%	90.5%	> 10 µM	> 10 µM	> 10 µM	> 10 µM	> 10 µM	0	0	0	0	0
C[C@@]1(O)[C@H](O)[C@@H](CO)O[C@H]1n1cnc2c(NC3CCCC3)nc(Cl)nc21 [2'-MeCCPA]	96.9%	100%	96.8%	99.6%	100%	95.6%	95.5%	101%	97.7%	96.8%	95.9%	100%	102%	105%	103%	105%	98.7%	100%	98.9%	102%	93.9%	98%	96.5%	100%	91.4%	> 10 µM	> 10 µM	> 10 µM	> 10 µM	> 10 µM	0	0	0	0	0
O=C1c2ccccc2C(=O)C1c1ccc(Br)cc1 [bromindione]	104%	99.7%	102%	96.5%	102%	103%	103%	107%	108%	99.5%	105%	70.7%	95.6%	80.8%	96.3%	102%	103%	103%	104%	99.4%	107%	93.8%	103%	95.6%	106%	> 10 µM	> 10 µM	> 10 µM	> 10 µM	> 10 µM	0	0	0	0	0
COc1cc([C@@H]2c3cc4c(cc3[C@@H](O[C@@H]3O[C@@H]5CO[C@@H](C)O[C@H]5[C@H](O)[C@H]3O)[C@H]3COC(=O)[C@H]23)OCO4)cc(OC)c1OP(=O)(O)O [etoposide-phosphate]	95.1%	104%	94.9%	99.7%	108%	88.6%	86.8%	85.4%	59.7%	29.5%	81.7%	92.6%	91.9%	102%	107%	93.3%	97.6%	92.7%	86.7%	88.3%	107%	106%	98.3%	85.7%	47.1%	> 10 µM	0.478 µM	> 10 µM	> 10 µM	1.49 µM	0	10	0	0.3	5
CN(C)c1ccc(C(=O)NCCCCCCC(=O)NO)cc1 [M-344]	99.2%	94.6%	93.9%	47.2%	1.1%	106%	92.8%	80.2%	37.9%	0.3%	101%	99.4%	103%	75.6%	1.5%	97.5%	101%	92.1%	56%	0%	101%	93.7%	77.2%	55.3%	13.6%	0.891 µM	0.504 µM	1.56 µM	1.14 µM	0.581 µM	11.7	14.4	9.2	10.6	11.8
Cc1ncc[nH]1 [2-methylimidazole]	98.7%	97.4%	101%	97.8%	99%	95.3%	95.7%	89.7%	96.2%	91.5%	98.7%	97.4%	92.6%	107%	104%	96.2%	97.8%	96.1%	94.9%	108%	96.7%	97.1%	112%	107%	117%	> 10 µM	> 10 µM	> 10 µM	> 10 µM	> 10 µM	0	0	0	0	0
CN1CC(=O)N=C1NC(=O)Nc1cccc(Cl)c1 [fenobam]	96.6%	106%	98.2%	102%	98.3%	110%	99.4%	112%	97%	103%	93.1%	94.4%	90.1%	103%	97.7%	100%	97%	99.5%	100%	101%	102%	101%	100%	105%	97.1%	> 10 µM	> 10 µM	> 10 µM	> 10 µM	> 10 µM	0	0	0	0	0
N[C@@H](C(=O)O)c1ccc(C(=O)O)c(O)c1 (racemic) [4-carboxy-3-hydroxyphenylglycine-(RS)]	97.1 ± 3%	99.4 ± 2.1%	97.8 ± 3.1%	98.7 ± 4.6%	105 ± 1.8%	99.7 ± 6.4%	113 ± 12%	104 ± 6.9%	107 ± 4%	98.7 ± 16%	98.6%	97.4%	92.6%	110%	103%	101.5 ± 0.78%	98.35 ± 0.49%	97.35 ± 0.92%	102 ± 5.4%	105 ± 12%	94.7 ± 5.6%	91.5 ± 6.3%	95.95 ± 0.35%	94.5 ± 1.1%	99.5 ± 2%	> 10 µM	> 10 µM	> 10 µM	> 10 µM	> 10 µM	0	0	0	0	0
